Assay results reported in the NIST ThermoML archive (doi:10.1021/acs.jced.9b00780).
± gives the expanded uncertainty stated by the source.

What was measured:
[1] = refractive index (Na D-line) (dimensionless); wn = mass fraction of the nth substance listed; conditions: 298.15 K, 100 kPa, Liquid, Standard Abbe refractometry
[2] = wn = mass fraction of the nth substance listed; conditions: 298.15 K, 100 kPa, Liquid, Vibrating tube method

refractive index ([1]; w1 = 0.2259) | mass density ([2]; w1 = 0.2259) [kg/m3] | Compound | refractive index ([1]; w1 = 0.0308) | mass density ([2]; w1 = 0.0308) [kg/m3]
1.3872 ± 0.0033 | 1267.8 ± 6.2 | O=B[O-].[Na+] [sodium metaborate] + O |  | 
 |  | O=BOB([O-])OB([O-])OB=O.[Na+].[Na+] [sodium tetraborate] + O | 1.339 ± 0.003 | 1025.65 ± 0.63
